In US20130055471A1, “Transgenic Ozone-Resistant Plants” (priority 2009, published 2013):
Entries after “also recorded” stand apart in the source; their conditions may differ.

Experiments:
[1] = system: Corn; experiment: Full leaf Corn Total Dark Respiration (TDR) measurements; type: in vivo, Zea mays L.
Excerpt: (§1) Ozone generators (model OP-35-3P, Grupo Interozone, Brazil) were coupled to ozone monitors (model 202, 2B Technologies, Inc. […] Crops Advance Brazil). […] This was used as the upper limit for phytotron number one. […] Ozone levels of phytotron number two and three were permanently measured at 10 second intervals and averaged per minute. Each ozone monitor fed averaged values over an analog output to an ozone monitor-ozone generator interface. Hysteresis was set at +/-5 ppbv. Ozone levels were monitored close to the inlet of the two internal circulation ventilators. The ozone generators were adapted to accept an external digital signal from the interface. Respiration of plant material was tested as follows: Partial oxygen pressure drops due to oxygen consumption as result of dark respiration were measured using phase shift fluorescence measurement. For this, a NeoFoxTM Phase Measurement System was used (Fluorometer Bench version using a […] laboratory-grade bifurcated optical fiber with FOXY-R-8 cm overcoated fluorescence oxygen needle sensor, Ocean Optics Inc. USA). Fluorescence phase shift was expressed as Tau in microseconds (μs) and has an inverse and linear relation with the partial oxygen pressure. […] In addition, full leaf Total Dark Respiration (TDR) measurements without the use of any pre-treatment solution (no SHAM and pretreatment control) were executed for cotton, corn and rice. Data (tables 2, 3 and 4) show clear positive correlation between a) total respiration per unit of fresh weight and ozone level, and b) total respiration per unit of dry weight and ozone level.

[2] = system: Sugarcane plants; experiment: AOX and total dark respiration in sugarcane exposed to various levels of ozone; type: in vivo, Saccharum spp.; conditions: for relative AOX, integration of the parabolic function yields / absolute AOX, integration of the parabolic function yields: 60 ppbv
Excerpt: For sugarcane 4 plantlets per pot were provided and these plantlets were transplanted from the agar following washing of their root system with nutrient solution (see below) in order to remove residual agar. Every sugar cane pot was provided with a dome consisting of a 5 litre water flask (PP) of which the bottom was removed creating a 30 cm high dome. Crepe-tape was used to provide an air-tight connection between the bottom rim of the flask and the planting pot. The 40 mm screw cap on top functioned as a ventilation valve, initially maintaining near 100% RV to prevent the plantlets from drying out. Directly after transplanting, the sugar cane plantlets were placed in a phytotron (4 pots per phytotron) more in particular in acrylic cabinets created therein (see below). The sugar cane domes were removed 10 days after transplanting. All plantings were done at day 0. shifting plants to new ozone background for all plants=day 70. […] 60 ppb plants after 8 days (=day 78) in 0 ppb still act as if in 60 ppb. Sugar Cane: plants from 0 ppb, after having their first 70 days of development in 0 ppb, stayed for the nex 33 days (till day 103) in 60 ppb before being placed back in their original 0 ppb. […] Sugarcane plants were grown in the same manner as described above in Example 2. The AOX and total dark respiration were measured for plants exposed to various levels of ozone as described above in Example 2.

[3] = system: Cotton; experiment: Total dark respiration and SHAM-sensitive AOX by phase shift fluorescence, cotton leaf sections; type: in vivo, Gossypium spp.; conditions: for increase of AOX respiration compared to the initial AOX respiration rate: ontogenic phase in 0 ppbv ozone ambient
Excerpt: All plantings were done at day 0. shifting plants to new ozone background for all plants=day 70. […] 60 ppb plants after 8 days (=day 78) in 0 ppb still act as if in 60 ppb. Sugar Cane: plants from 0 ppb, after having their first 70 days of development in 0 ppb, stayed for the nex 33 days (till day 103) in 60 ppb before being placed back in their original 0 ppb.
Ozone generators (model OP-35-3P, Grupo Interozone, Brazil) were coupled to ozone monitors (model 202, 2B Technologies, Inc. USA; dynamic range of 1.5 ppbv to 100 ppmv of ozone; precision 1.5 ppbv or 2% of the reading) using a ozone monitor—generator interface (Engineering dep. Crops Advance Brazil). […] This was used as the upper limit for phytotron number one. Phytotron number two was set at 30 ppbv average ozone. Phytotron number three was set at 60 ppbv average ozone. Ozone levels of phytotron number two and three were permanently measured at 10 second intervals and averaged per minute. Each ozone monitor fed averaged values over an analog output to an ozone monitor—ozone generator interface. Hysteresis was set at +/−5 ppbv. Ozone levels were monitored close to the inlet of the two internal circulation ventilators. The ozone generators were adapted to accept an external digital signal from the interface.
Respiration of plant material was tested as follows: Partial oxygen pressure drops due to oxygen consumption as result of dark respiration were measured using phase shift fluorescence measurement. For this, a NeoFox™ Phase Measurement System was used (Fluorometer Bench version using a QBIF600-VIS-NIR laboratory-grade bifurcated optical fiber with FOXY-R-8 cm overcoated fluorescence oxygen needle sensor, Ocean Optics Inc. USA).
Fluorescence phase shift was expressed as Tau in microseconds (μs) and has an inverse and linear relation with the partial oxygen pressure.
Salicylhydroxamic acid (SHAM) (99%, Sigma-Aldrich Brasil Ltda. Sao Paulo, Brazil) was used as an AOX inhibitor. The soluble sodium salicylhydroxamate salt was prepared by titrating SHAM with 0.1 M sodium hydroxide until neural pH. A stock solution ([…]) was prepared containing 300 ml/L ethanol from initial dissolving SHAM (same abbreviation is used for the salicylhydroxamate salt). From the stock solution a 20 mmol/L salicylhydroxamate final test solution was prepared by taking 12.3 ml stock solution and completing till 100 ml with a phosphate buffer solution (pH 7). The final SHAM test solution thus contained 3.7% residual ethanol. For proper control, the comparative test solution was also provided with 3.7 ml of ethanol per 100 ml of phosphate buffer solution (pH 7). To both solutions two drops of wetting agent (Silwet L-77 AG, GE Silicones Inc. USA) were added per 25 ml of test solution.
Plant material collected was always the first fully grown leaf counting from the apical point downwards or outwards (e.g. for monocotyls). […] Per test, four leafs from four different plants were sampled. Cotton leafs were cut in half along the mid nerve. Using a clipper, 16 leaf sections of equal surface area of 400.9 mm2 each were cut, one from each base half and one from each top half part giving 4 sections per leaf and 16 sections per test. The leaf sections were distributed equally over two sub samples, one with and one without salicylhydroxamate. Using a chirurgical blade, all sections were given 7 parallel cuts (through and through) at approximately 2.5 mm apart over almost the full length of the section to guarantee lateral infiltration of the test solutions and gas exchange.
Within 10 minutes of plant sampling the sections were cut, initial subsample weight was registered using a high precision laboratory scale and the subsamples were placed in their solutions with and without salicylhydroxamate for 60 minutes in the dark, to guarantee dark adaptation.
Each sample contained 4 leaves, 4 sections per leaf providing 16 sections, 8 per subsample. […]

[4] = system: Rice; experiment: Full leaf Rice Total Dark Respiration (TDR) measurements; type: in vivo, Oryza sativa L.
Excerpt: as §1

[5] = system: Cotton; experiment: Full leaf Cotton Total Dark Respiration (TDR) measurements; type: in vivo, Gossypium spp.
Excerpt: as §1

[6] = ozone concentration during growth 30 ppbv
[7] = ozone concentration during growth 60 ppbv
[8] = 0 →30 ppbv ozone: plants grown in 0 ppvb O3 and transferred to 30 ppvb O3
[9] = 0 →60 ppbv ozone: plants grown in 0 ppvb O3 and transferred to 60 ppvb O3 (day 70, 7 days)
[10] = 0 →60 →0 ppbv ozone: grown in 0 ppvb O3, transferred to 60 ppvb O3 and transferred back to 0 ppvb O3
[11] = 60 →0 ppbv ozone: plants grown in 60 ppvb O3 and transferred to 0 ppvb O3 (day 70, 8 days)

O=[O+][O-] [ozone]
Normalized dark respiration activity (dwt) [1, 6]: 14.7 h/Tau/g dry weigth/40 ml | Normalized dark respiration activity (fwt) [1, 6]: 78.3 h/Tau/g fresh weigth/40 ml | Normalized dark respiration activity (dwt) [1, 7]: 14.5 h/Tau/g dry weigth/40 ml | Normalized dark respiration activity (fwt) [1, 7]: 72.1 h/Tau/g fresh weigth/40 ml | relative AOX, integration of the parabolic function yields ([2]; Time of Day 5.3): 0.0% | absolute AOX, integration of the parabolic function yields ([2]; Time of Day 5.6): 0.0 | absolute AOX, integration of the parabolic function yields ([2]; Time of Day 23.0): 51.9 | relative AOX, integration of the parabolic function yields ([2]; Time of Day 24.3): 436% | AOX at 10:00 am (% of TDR) ([2]; 70 days 0 ppbv, 33 days at 60 ppbv, returned to 0 ppbv, after 5 days): approximately 5 % of TDR | AOX at about 10:00 am (% of TDR) ([2]; 70 days 0 ppbv, 33 days at 60 ppbv, then returned to 0 ppbv, first): approximately 35 % of TDR | AOX level after shift to 0 ppbv ([2]; 70 days at 60 ppbv, thereafter 33 days in 0 ppbv): maintained their 60 ppb AOX levels; also recorded: maintain their high AOX; also recorded: consistently high AOX levels | AOX 60 ppbv/AOX 0 ppbv (dTau/dt/dTau/dt) ([2]; absolute AOX): 169% | AOX 60 ppbv/AOX 0 ppbv (%/%) ([2]; relative AOX): 154% | AOX component (arb units) [3, 8]: 3.26 arb units | AOX/TDR [3, 8]: 30.3% | AOX/TDR relative to initial equilibrium [3, 8]: 116.5% | TDR excl AOX dTau/t (μs/s) without SHAM [3, 8]: 7.51E−06 μs/s | TDR incl AOX dTau/t (μs/s) with SHAM [3, 8]: 1.08E−05 μs/s | AOX component (arb units) [3, 9]: 3.77 arb units | AOX/TDR [3, 9]: 39.6% | AOX/TDR relative to initial equilibrium [3, 9]: 152.5% | TDR excl AOX dTau/t (μs/s) without SHAM [3, 9]: 5.75E−06 μs/s | TDR incl AOX dTau/t (μs/s) with SHAM [3, 9]: 9.52E−06 μs/s | AOX component (arb units) [3, 10]: 2.95 arb units | AOX/TDR [3, 10]: 25.0% | AOX/TDR relative to initial equilibrium [3, 10]: 96.2% | TDR excl AOX dTau/t (μs/s) without SHAM [3, 10]: 8.87E−06 μs/s | TDR incl AOX dTau/t (μs/s) with SHAM [3, 10]: 1.18E−05 μs/s | AOX component (arb units) [3, 11]: 3.97 arb units | AOX/TDR [3, 11]: 35.8% | AOX/TDR relative to initial equilibrium [3, 11]: 100.5% | TDR excl AOX dTau/t (μs/s) without SHAM [3, 11]: 7.13E−06 μs/s | TDR incl AOX dTau/t (μs/s) with SHAM [3, 11]: 1.11E−05 μs/s | increase of AOX respiration compared to the initial AOX respiration rate ([3]; placed in the 30 ppbv ozone ambient): 16.5% | increase of AOX respiration compared to the initial AOX respiration rate ([3]; placed in the 60 ppbv ozone ambient): 52.5% | AOX respiration after return to the 0 ppbv ozone ambient ([3]; ontogenic phase in 0 ppbv, passed time in the 60 ppbv ozone ambient): returned fully to its initial level | AOX component (arb units) ([3]; plants grown in 30 ppvb O3): 2.97 arb units | AOX/TDR ([3]; plants grown in 30 ppvb O3): 29.9% | TDR excl AOX dTau/t (μs/s) without SHAM ([3]; plants grown in 30 ppvb O3): 6.96E−06 μs/s | TDR incl AOX dTau/t (μs/s) with SHAM ([3]; plants grown in 30 ppvb O3): 9.93E−06 μs/s | AOX component (arb units) ([3]; plants grown in 60 ppvb O3): 3.33 arb units | AOX/TDR ([3]; plants grown in 60 ppvb O3): 35.6% | AOX/TDR relative to initial equilibrium ([3]; plants grown in 60 ppvb O3): 100.0% | TDR excl AOX dTau/t (μs/s) without SHAM ([3]; plants grown in 60 ppvb O3): 6.03E−06 μs/s | TDR incl AOX dTau/t (μs/s) with SHAM ([3]; plants grown in 60 ppvb O3): 9.36E−06 μs/s | AOX respiration during stay in the zero ozone level ambient ([3]; plants grown up in the 60 ppbv ozone level ambient): did not lower their AOX respiration | Normalized dark respiration activity (dwt) [4, 6]: 8.2 h/Tau/g dry weigth/40 ml | Normalized dark respiration activity (fwt) [4, 6]: 29.2 h/Tau/g fresh weigth/40 ml | Normalized dark respiration activity (dwt) [4, 7]: 7.6 h/Tau/g dry weigth/40 ml | Normalized dark respiration activity (fwt) [4, 7]: 29.4 h/Tau/g fresh weigth/40 ml | Normalized dark respiration activity (dwt) [5, 6]: 13.4 h/Tau/g dry weigth/40 ml | Normalized dark respiration activity (fwt) [5, 6]: 72.6 h/Tau/g fresh weigth/40 ml | Normalized dark respiration activity (dwt) [5, 7]: 12.7 h/Tau/g dry weigth/40 ml | Normalized dark respiration activity (fwt) [5, 7]: 67.9 h/Tau/g fresh weigth/40 ml
